Measurements as given in ChEMBL document CHEMBL1151398, “New taxanes from Taxus brevifolia” (1982).

Legend:
KB = assay: Cytotoxicity against human KB cells; type: functional; parameters: concentration or dose not given beside the values
Astrocyte = assay: Astrocyte reversal activity in astrocytes; type: functional; conditions: read-out: ED50 (the source's name)

SMILES | EC50 (Astrocyte) | Activity (KB)
CC(=O)O[C@@]12CO[C@@H]1C[C@H](O)[C@@]1(C)C(=O)[C@H](O)C3=C(C)[C@@H](O)C[C@@](O)([C@@H](OC(=O)c4ccccc4)[C@H]21)C3(C)C | 1 µg/mL | 16%
CC(=O)O[C@H]1C(=O)[C@]2(C)[C@@H](OC(C)=O)C[C@H]3OC[C@@]3(OC(C)=O)[C@H]2[C@H](OC(=O)c2ccccc2)[C@]2(O)C[C@H](OC(=O)[C@H](OC(C)=O)[C@@H](NC(=O)c3ccccc3)c3ccccc3)C(C)=C1C2(C)C | 0.03 µg/mL | 16%

Further lines, with some results ahead:

EC50 (Astrocyte) | SMILES | Activity (KB)
< 0.01 µg/mL | CC(=O)O[C@H]1C[C@H]2OC[C@@]2(OC(C)=O)[C@H]2[C@H](OC(=O)c3ccccc3)[C@]3(O)C[C@H](OC(=O)[C@H](OC(C)=O)[C@@H](NC(=O)c4ccccc4)c4ccccc4)C(C)=C([C@@H](O)C(=O)[C@]12C)C3(C)C | 16%
28 µg/mL | C=C1[C@@H](O)C[C@H](OC(C)=O)[C@@]2(C)[C@@H](OC(C)=O)[C@H](OC(C)=O)C3=C(C)[C@@H](OC(C)=O)C[C@@H]([C@@H](OC(C)=O)[C@H]12)C3(C)C [DECINNAMOYLTAXININE J] | 16%
< 0.01 µg/mL | CC(=O)O[C@H]1C(=O)[C@@]2(C)[C@H]([C@H](OC(=O)c3ccccc3)[C@]3(O)C[C@H](OC(=O)[C@H](O)[C@@H](NC(=O)c4ccccc4)c4ccccc4)C(C)=C1C3(C)C)[C@]1(OC(C)=O)CO[C@@H]1C[C@@H]2O [PACLITAXEL] | 31%
